In assay [1] the test system is HeLa cells. Description: MTT assay. Format: cell-based. The note with it: Homo sapiens, 48 h, read-out: Cytotoxicity (HeLa cells).
The subject of assay [2] is PBD. Conditions: cited from earlier work.

As for `CC[C@@H]1C(=O)N(C)c2cnc(Nc3ccc(C(=O)NC4CCN(C)CC4)cc3OC)nc2N1C1CCCC1` [BI2536], in assay [1], the IC50 was 32 ± 1.6 nM.

For PLHSpT [Ligand 1], the “less PBD-binding affinity than peptide 2” value in assay [2] is “approximately 1000 fold”.
